Source: patent US20230085307A1, “PYRIDAZINONE COMPOUND AND HERBICIDE” (NISSAN CHEMICAL CORPORATION, priority 2019, published 2023)

Columns and labels:
late watergrass = experiment: Test Example 1: herbicidal activity, application before weed generation under submerged conditions (Table 16, symbol A); format: in vivo, late watergrass (Echinochloa oryzicola)
In short: (§1)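 Submerged Wagner pots (alluvial soil, 4 cm water) sown with weed seeds and planted with 2.5-leaf rice seedlings; emulsifiable concentrate diluted in water applied to water surface on sowing day. Held in greenhouse at 25-30 °C; injury scored 0-5 by herbicidal rate after three weeks.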

Japanese bulrush = experiment: Test Example 1: herbicidal activity, application before weed generation under submerged conditions (Table 16, symbol B); format: in vivo, Japanese bulrush (Schoenoplectus juncoides)
In short: as §1

oval-leafed pondweed = experiment: Test Example 1: herbicidal activity, application before weed generation under submerged conditions (Table 16, symbol C); format: in vivo, oval-leafed pondweed (Monochoria vaginalis)
In short: as §1

barnyard grass [1] = experiment: Test Example 3: herbicidal effect by foliage application, Wagner pot (Table 18, symbol H); format: in vivo, barnyard grass (Echinochloa crus-galli); details: 320 g/ha
In short: (§2)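 Plants were sown in alluvial soil held under 0.1–0.5 cm standing water and grown 14 days in a greenhouse at 25–30 °C. An emulsifiable formulation, water-diluted to the set dose, was then sprayed onto the foliage, and effects were scored three weeks later using previously defined criteria.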

Chinese sprangletop = experiment: Test Example 3: herbicidal effect by foliage application, Wagner pot (Table 18, symbol D); format: in vivo, chinese sprangletop (Leptochloa chinensis); details: 320 g/ha
In short: as §2

rice flat sedge = experiment: Test Example 3: herbicidal effect by foliage application, Wagner pot (Table 18, symbol E); format: in vivo, rice flat sedge (Cyperus iria); details: 320 g/ha
In short: as §2

southern crabgrass [2] = experiment: Test Example 4: herbicidal effect by soil treatment (Table 19, symbol F); format: in vivo, southern crabgrass (Digitaria ciliaris)
In short: (§3)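 Three weeks of greenhouse growth at 25° C. to 30° C. followed a uniform surface spray of water-diluted emulsion at a predetermined herbicide amount. Seeds had been sown beforehand under about 1.5 cm of sterilized diluvial soil. Grading followed criteria set out in an earlier test.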

green foxtail [3] = experiment: Test Example 4: herbicidal effect by soil treatment (Table 19, symbol G); format: in vivo, green foxtail (Setaria viridis)
In short: as §3

barnyard grass [4] = experiment: Test Example 4: herbicidal effect by soil treatment (Table 19, symbol H); format: in vivo, barnyard grass (Echinochloa crus-galli)
In short: as §3

wild oat [5] = experiment: Test Example 4: herbicidal effect by soil treatment (Table 19, symbol I); format: in vivo, wild oat (Avena fatua)
In short: as §3

blackgrass [6] = experiment: Test Example 4: herbicidal effect by soil treatment (Table 19, symbol J); format: in vivo, blackgrass (Alopecurus myosuroides)
In short: as §3

Italian ryegrass [7] = experiment: Test Example 4: herbicidal effect by soil treatment (Table 19, symbol K); format: in vivo, Italian ryegrass (Lolium multiflorum)
In short: as §3

windgrass [8] = experiment: Test Example 4: herbicidal effect by soil treatment (Table 19, symbol L); format: in vivo, windgrass (Apera spica-venti)
In short: as §3

velvetleaf [9] = experiment: Test Example 4: herbicidal effect by soil treatment (Table 19, symbol M); format: in vivo, velvetleaf (Abutilon theophrasti)
In short: as §3

redroot pigweed = experiment: Test Example 4: herbicidal effect by soil treatment (Table 19, symbol N); format: in vivo, redroot pigweed (Amaranthus retroflexus)
In short: as §3

lambsquarters [10] = experiment: Test Example 4: herbicidal effect by soil treatment (Table 19, symbol O); format: in vivo, lambsquarters (Chenopodium album)
In short: as §3

chickweed = experiment: Test Example 4: herbicidal effect by soil treatment (Table 19, symbol P); format: in vivo, common chickweed (Stellaria media)
In short: as §3

persian speedwell [11] = experiment: Test Example 4: herbicidal effect by soil treatment (Table 19, symbol R); format: in vivo, Persian speedwell (Veronica persica)
In short: as §3

southern crabgrass [12] = experiment: Test Example 5: herbicidal effect by foliage application, plastic box (Table 20, symbol F); format: in vivo, southern crabgrass (Digitaria ciliaris); details: foliage application, 320 g/ha
In short: (§4)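 Plants sown in sterilized diluvial soil and grown 14 days in a greenhouse at 25° C to 30° C, then sprayed on the foliage with the compound's emulsion diluted in water to a predetermined herbicide amount. Injury to weeds and crops scored three weeks after application on a visual rating scale.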

green foxtail [13] = experiment: Test Example 5: herbicidal effect by foliage application, plastic box (Table 20, symbol G); format: in vivo, green foxtail (Setaria viridis); details: foliage application, 320 g/ha
In short: as §4

barnyard grass [14] = experiment: Test Example 5: herbicidal effect by foliage application, plastic box (Table 20, symbol H); format: in vivo, barnyard grass (Echinochloa crus-galli); details: foliage application, 320 g/ha
In short: as §4

wild oat [15] = experiment: Test Example 5: herbicidal effect by foliage application, plastic box (Table 20, symbol I); format: in vivo, wild oat (Avena fatua); details: foliage application, 320 g/ha
In short: as §4

blackgrass [16] = experiment: Test Example 5: herbicidal effect by foliage application, plastic box (Table 20, symbol J); format: in vivo, blackgrass (Alopecurus myosuroides); details: foliage application, 320 g/ha
In short: as §4

Italian ryegrass [17] = experiment: Test Example 5: herbicidal effect by foliage application, plastic box (Table 20, symbol K); format: in vivo, Italian ryegrass (Lolium multiflorum); details: foliage application, 320 g/ha
In short: as §4

windgrass [18] = experiment: Test Example 5: herbicidal effect by foliage application, plastic box (Table 20, symbol L); format: in vivo, windgrass (Apera spica-venti); details: foliage application, 320 g/ha
In short: as §4

velvetleaf [19] = experiment: Test Example 5: herbicidal effect by foliage application, plastic box (Table 20, symbol M); format: in vivo, velvetleaf (Abutilon theophrasti); details: foliage application, 320 g/ha
In short: as §4

lambsquarters [20] = experiment: Test Example 5: herbicidal effect by foliage application, plastic box (Table 20, symbol O); format: in vivo, lambsquarters (Chenopodium album); details: foliage application, 320 g/ha
In short: as §4

persian speedwell [21] = experiment: Test Example 5: herbicidal effect by foliage application, plastic box (Table 20, symbol R); format: in vivo, Persian speedwell (Veronica persica); details: foliage application, 320 g/ha
In short: as §4

[22] = amount of applied herbicide 320 g/ha

Cc1nn(C)c(=O)c(-c2c(-c3ccc(F)cc3)sc3ccc(F)cc23)c1OC(=O)N1CCOCC1 [2-007]
Herbicidal effect on A: late watergrass (grade 0-5) (late watergrass; 320 g/ha applied herbicide): 2 (Herbicidal rate of 20% or more and less than 40%)
Herbicidal effect on B: Japanese bulrush (grade 0-5) (Japanese bulrush; 320 g/ha applied herbicide): 0 (Herbicidal rate of 5% or less (almost no effect))
Herbicidal effect on C: oval-leafed pondweed (grade 0-5) (oval-leafed pondweed; 320 g/ha applied herbicide): 0 (Herbicidal rate of 5% or less (almost no effect))
herbicidal effect on H (barnyard grass), rating 0-5 (barnyard grass [1]): 1 (Herbicidal rate of 5% or more and less than 20%)
herbicidal effect on D (Chinese sprangletop), rating 0-5 (Chinese sprangletop): 3 (Herbicidal rate of 40% or more and less than 70%)
herbicidal effect on E (rice flat sedge), rating 0-5 (rice flat sedge): 3 (Herbicidal rate of 40% or more and less than 70%)
herbicidal effect rating, F: southern crabgrass (southern crabgrass [2]; 320 g/ha): 1 (Herbicidal rate of 5% or more and less than 20%)
herbicidal effect rating, G: green foxtail (green foxtail [3]; 320 g/ha): 2 (Herbicidal rate of 20% or more and less than 40%)
herbicidal effect rating, H: barnyard grass (barnyard grass [4]; 320 g/ha): 0 (Herbicidal rate of 5% or less (almost no effect))
herbicidal effect rating, I: wild oat (wild oat [5]; 320 g/ha): 0 (Herbicidal rate of 5% or less (almost no effect))
herbicidal effect rating, J: blackgrass (blackgrass [6]; 320 g/ha): 0 (Herbicidal rate of 5% or less (almost no effect))
herbicidal effect rating, K: Italian ryegrass (Italian ryegrass [7]; 320 g/ha): 0 (Herbicidal rate of 5% or less (almost no effect))
herbicidal effect rating, L: windgrass (windgrass [8]; 320 g/ha): 0 (Herbicidal rate of 5% or less (almost no effect))
herbicidal effect rating, M: velvetleaf (velvetleaf [9]; 320 g/ha): 0 (Herbicidal rate of 5% or less (almost no effect))
herbicidal effect rating, N: redroot pigweed (redroot pigweed; 320 g/ha): 2 (Herbicidal rate of 20% or more and less than 40%)
herbicidal effect rating, O: lambsquarters (lambsquarters [10]; 320 g/ha): 0 (Herbicidal rate of 5% or less (almost no effect))
herbicidal effect rating, P: chickweed (chickweed; 320 g/ha): 0 (Herbicidal rate of 5% or less (almost no effect))
herbicidal effect rating, R: persian speedwell (persian speedwell [11]; 320 g/ha): 0 (Herbicidal rate of 5% or less (almost no effect))
effect on southern crabgrass (F) (southern crabgrass [12]; 3 weeks after application): 0 (Herbicidal rate of 5% or less (almost no effect))
effect on green foxtail (G) (green foxtail [13]; 3 weeks after application): 0 (Herbicidal rate of 5% or less (almost no effect))
effect on barnyard grass (H) (barnyard grass [14]; 3 weeks after application): 0 (Herbicidal rate of 5% or less (almost no effect))
effect on wild oat (I) (wild oat [15]; 3 weeks after application): 0 (Herbicidal rate of 5% or less (almost no effect))
effect on blackgrass (J) (blackgrass [16]; 3 weeks after application): 0 (Herbicidal rate of 5% or less (almost no effect))
effect on Italian ryegrass (K) (Italian ryegrass [17]; 3 weeks after application): 0 (Herbicidal rate of 5% or less (almost no effect))
effect on windgrass (L) (windgrass [18]; 3 weeks after application): 0 (Herbicidal rate of 5% or less (almost no effect))
effect on velvetleaf (M) (velvetleaf [19]; 3 weeks after application): 0 (Herbicidal rate of 5% or less (almost no effect))
effect on lambsquarters (O) (lambsquarters [20]; 3 weeks after application): 0 (Herbicidal rate of 5% or less (almost no effect))
effect on persian speedwell (R) (persian speedwell [21]; 3 weeks after application): 1 (Herbicidal rate of 5% or more and less than 20%)

CCCC(=O)Oc1c(C)nn(C)c(=O)c1-c1c(-c2ccc(F)cc2OC)sc2cc(Cl)c(Cl)cc12 [5-052]
Herbicidal effect, A: late watergrass (late watergrass; [22]): 0 (Herbicidal rate of 5% or less (almost no effect))
Herbicidal effect, B: Japanese bulrush (Japanese bulrush; [22]): 3 (Herbicidal rate of 40% or more and less than 70%)
Herbicidal effect, C: oval-leafed pondweed (oval-leafed pondweed; [22]): 0 (Herbicidal rate of 5% or less (almost no effect))
herbicidal effect on barnyard grass (H) (barnyard grass [1]): 5 (Herbicidal rate of 90% or more (almost completely withered))
herbicidal effect on Chinese sprangletop (D) (Chinese sprangletop): 3 (Herbicidal rate of 40% or more and less than 70%)
herbicidal effect on rice flat sedge (E) (rice flat sedge): 5 (Herbicidal rate of 90% or more (almost completely withered))
F: southern crabgrass, herbicidal effect grade (southern crabgrass [2]; [22]): 0 (Herbicidal rate of 5% or less (almost no effect))
G: green foxtail, herbicidal effect grade (green foxtail [3]; [22]): 0 (Herbicidal rate of 5% or less (almost no effect))
H: barnyard grass, herbicidal effect grade (barnyard grass [4]; [22]): 0 (Herbicidal rate of 5% or less (almost no effect))
I: wild oat, herbicidal effect grade (wild oat [5]; [22]): 0 (Herbicidal rate of 5% or less (almost no effect))
J: blackgrass, herbicidal effect grade (blackgrass [6]; [22]): 0 (Herbicidal rate of 5% or less (almost no effect))
K: Italian ryegrass, herbicidal effect grade (Italian ryegrass [7]; [22]): 0 (Herbicidal rate of 5% or less (almost no effect))
L: windgrass, herbicidal effect grade (windgrass [8]; [22]): 0 (Herbicidal rate of 5% or less (almost no effect))
M: velvetleaf, herbicidal effect grade (velvetleaf [9]; [22]): 0 (Herbicidal rate of 5% or less (almost no effect))
N: redroot pigweed, herbicidal effect grade (redroot pigweed; [22]): 2 (Herbicidal rate of 20% or more and less than 40%)
O: lambsquarters, herbicidal effect grade (lambsquarters [10]; [22]): 3 (Herbicidal rate of 40% or more and less than 70%)
P: chickweed, herbicidal effect grade (chickweed; [22]): 3 (Herbicidal rate of 40% or more and less than 70%)
R: persian speedwell, herbicidal effect grade (persian speedwell [11]; [22]): 0 (Herbicidal rate of 5% or less (almost no effect))
herbicidal effect on southern crabgrass (F) (southern crabgrass [12]; three weeks after application): 0 (Herbicidal rate of 5% or less (almost no effect))
herbicidal effect on green foxtail (G) (green foxtail [13]; three weeks after application): 3 (Herbicidal rate of 40% or more and less than 70%)
herbicidal effect on barnyard grass (H) (barnyard grass [14]; three weeks after application): 4 (Herbicidal rate of 70% or more and less than 90%)
herbicidal effect on wild oat (I) (wild oat [15]; three weeks after application): 0 (Herbicidal rate of 5% or less (almost no effect))
herbicidal effect on blackgrass (J) (blackgrass [16]; three weeks after application): 4 (Herbicidal rate of 70% or more and less than 90%)
herbicidal effect on Italian ryegrass (K) (Italian ryegrass [17]; three weeks after application): 0 (Herbicidal rate of 5% or less (almost no effect))
herbicidal effect on windgrass (L) (windgrass [18]; three weeks after application): 4 (Herbicidal rate of 70% or more and less than 90%)
herbicidal effect on velvetleaf (M) (velvetleaf [19]; three weeks after application): 4 (Herbicidal rate of 70% or more and less than 90%)
herbicidal effect on lambsquarters (O) (lambsquarters [20]; three weeks after application): 5 (Herbicidal rate of 90% or more (almost completely withered))
herbicidal effect on persian speedwell (R) (persian speedwell [21]; three weeks after application): 4 (Herbicidal rate of 70% or more and less than 90%)
